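Results reflect a 48-hour exposure of cells in 96-well plates to compound at five concentrations. TGI denotes the concentration required for complete inhibition of growth.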
What was measured:
Assay in all cases: NCI tumour cell line growth inhibition, 48 h
M14 melanoma = test system: M14 melanoma
KM20L2 colon = test system: KM20L2 colon
SNB-19 CNS = test system: SNB-19 CNS
SW-620 colon = test system: SW-620 colon
U251 CNS = test system: U251 CNS
ACHN renal = test system: ACHN renal
SF-295 CNS = test system: SF-295 CNS
HOP-92 NSCLC = test system: HOP-92 NSCLC
HCT-15 colon = test system: HCT-15 colon
OVCAR-3 ovarian = test system: OVCAR-3 ovarian
XF 498 CNS = test system: XF 498 CNS
CCRF-CEM leukemia = test system: CCRF-CEM leukemia
K-562 leukemia = test system: K-562 leukemia
OVCAR-4 ovarian = test system: OVCAR-4 ovarian
RXF 393 renal = test system: RXF 393 renal
A549 NSCLC = test system: A549 NSCLC
IGROV1 ovarian = test system: IGROV1 ovarian
OVCAR-8 ovarian = test system: OVCAR-8 ovarian
KM12 colon = test system: KM12 colon
UACC-62 melanoma = test system: UACC-62 melanoma
HT29 colon = test system: HT29 colon
HCC-2998 colon = test system: HCC-2998 colon
MOLT-4 leukemia = test system: MOLT-4 leukemia
NCI-H522 lung = test system: NCI-H522 lung
SK-MEL-2 melanoma = test system: SK-MEL-2 melanoma
TK-10 renal = test system: TK-10 renal
M19-MEL melanoma = test system: M19-MEL melanoma
SK-MEL-5 melanoma = test system: SK-MEL-5 melanoma
CAKI-1 renal = test system: CAKI-1 renal
OVCAR-5 ovarian = test system: OVCAR-5 ovarian
SF-539 CNS = test system: SF-539 CNS
SR leukemia = test system: SR leukemia
SF-268 CNS = test system: SF-268 CNS
DLD-1 colon = test system: DLD-1 colon
SNB-78 CNS = test system: SNB-78 CNS
UO-31 renal = test system: UO-31 renal
SN12C renal = test system: SN12C renal
DMS 114 small cell lung = test system: DMS 114 small cell lung
LXFL 529 NSCLC = test system: LXFL 529 NSCLC
COLO 205 colon = test system: COLO 205 colon
786-0 renal = test system: 786-0 renal
SK-MEL-28 melanoma = test system: SK-MEL-28 melanoma
EKVX NSCLC = test system: EKVX NSCLC
NCI-H23 lung = test system: NCI-H23 lung
SK-OV-3 ovarian = test system: SK-OV-3 ovarian
MALME-3M melanoma = test system: MALME-3M melanoma
UACC-257 melanoma = test system: UACC-257 melanoma
HOP-62 NSCLC = test system: HOP-62 NSCLC
SNB-75 CNS = test system: SNB-75 CNS
HCT-116 colon = test system: HCT-116 colon
NCI-H460 lung = test system: NCI-H460 lung
RPMI-8226 leukemia = test system: RPMI-8226 leukemia
HL-60(TB) leukemia = test system: HL-60(TB) leukemia
A498 renal = test system: A498 renal
DMS 273 small cell lung = test system: DMS 273 small cell lung
NCI-H226 lung = test system: NCI-H226 lung
LOX IMVI melanoma = test system: LOX IMVI melanoma

Measured: TGI

COc1cccc(/C=C(\NC(C)=O)c2nc3ccc(Cl)cc3[nH]2)c1
not listed: UACC-257 melanoma | HOP-62 NSCLC | SNB-75 CNS | HCT-116 colon | NCI-H460 lung | RPMI-8226 leukemia | HL-60(TB) leukemia | A498 renal | DMS 273 small cell lung | NCI-H226 lung | LOX IMVI melanoma
> 100 µM: all other assays above

COc1ccc(N2C(Cl)C(=O)C2c2c[nH]c3ccccc23)cc1 (stereo not given)
not listed: ACHN renal | HCT-15 colon | HCC-2998 colon | CAKI-1 renal | DLD-1 colon | SNB-78 CNS | 786-0 renal | A498 renal | DMS 273 small cell lung | NCI-H226 lung | LOX IMVI melanoma
> 100 µM: all other assays above

COC1=CC(=O)[C@]2(C)[C@H](C1=O)C(C)[C@H]2c1ccc(OC)cc1 (stereo not given in full)
not listed: KM20L2 colon | SN12C renal | DMS 114 small cell lung | HCT-116 colon
> 100 µM: all other assays above

Reference: PubChem BioAssay (NCI)
